Paper PMC10418426, “A Comprehensive Technology Platform for the Rapid Discovery of Peptide Inhibitors against SARS-CoV-2 Pseudovirus Infection” (International Journal of Molecular Sciences, 2023)
Starred links: 1 amine or outer side, 2 acyl side, 3 side chain; linkers in the order of their positions; H or OH if unused. Positions of bridges follow the written chain, without caps; N, C: chain ends. Residues, ends and D or L forms follow the SMILES beside them. mXylylene = c1cc(C[*:1])cc(C[*:2])c1

System: HEK293-ACE2 cells
Conditions: 1 to 100 μM, 24 h treatment plus 24 h in fresh medium, absorbance 560 nm

C[C@@H](O)[C@@H]1NC(=O)[C@@H]2CCCN2C(=O)[C@H](CCC(N)=O)NC(=O)[C@@H](N)CSCc2cccc(c2)CSC[C@@H](C(N)=O)NC(=O)[C@H](CCC(N)=O)NC(=O)[C@H](Cc2c[nH]c3ccccc23)NC(=O)CNC(=O)[C@H](CCCCN)NC(=O)CNC(=O)[C@H](CC(N)=O)NC1=O [c9_05] (H-CQPTNGKGWQC-NH2; linker 1-11 via mXylylene)
effect on cell viability (MTT): did not cause any significant decrease in cell viability
